The values below come from US7662851B2, “Use of specific cyklolignans” (Axelar AB, priority 2001, dated 2010).

Read-outs that look alike come from different tables or passages of the source. Where only a bound is given, the exact number is not on record here.

Assay [1] has as its system R- cells (IGF-1R negative fibroblasts). The experiment in a line: Cell viability (XTT), R-. It counts as cell-based, murine. The conditions noted are these: Mus musculus, Fibroblast, 48 h, read-out: EC50 for cell viability. On the procedure:
(§1) Cell proliferation kit II (Roche Inc.) is based on colorimetric change of the yellow tetrazolium salt XTT in orange formazan dye by the respiratory chain of viable cells (Roehm, N W, et al., J Immunol Methods 142:257-265, 1991). Cells seeded at a concentration of 5000/well in 100 μl medium in a 96-well plate were treated with different drugs in the given concentration. After 24 or 48 h the cells were incubated, according to the manufacturer's protocol, with XTT labelling mixture. After 4 h the formazan dye is quantified using a scanning multiwell spectrophotometer with a 495-nm filter. The absorbance is directly correlated with the number of viable cells. The standard absorbance curve was drawn by means of untreated cells seeded at a concentration of from 1000 to 10 000 cells/well with an increasing rate of 1000 cells/well. All standards and experiments were performed in triplicates.
(§2) 12 different types of cell lines were seeded in 96-well plates (medium volume in a well was 100 μl), at a concentration of 10,000 cells/cm^2 in Minimal Essential Medium supplemented with fetal calf serum. When the cells had reached a concentration of 65,000 cells/cm^2, they were treated with different doses of podophyllotoxin and picropodophyllin for 48 h. Cell viability was then assayed (see above). […]
In general terms: Tetrazolium assays rely on reduction of a dye to a coloured formazan, in cell work by metabolically active cells.

The subject of assay [2] is FM55 melanoma cell line. The experiment in a line: Cell viability (XTT), FM55. The assay is classed as cell-based. The conditions noted are these: read-out: EC50 for cell viability. The method, then: as §1, §2
Assay [3] deals with T1, IGF-1R (Homo sapiens, UniProt P08069). Put plainly: IGF-1R tyrosine autophosphorylation, sandwich ELISA, cell-free. The assay is classed as biochemical. Also noted: expressed in transfected cells; host or cells: P6 cell line (murine fibroblasts overexpressing human IGF-1R); receptor captured on plates with an antibody to the beta subunit. On the procedure: IGF-1R tyrosine autophosphorylation was analysed by a sandwich ELISA assay. Briefly, 96-well plates (Immunolon, Nunc) were coated overnight at 4° C. with 1 μg/well of the monoclonal antibody Ab-5 (LabVision) to the IGF-1R beta subunit. The plates were blocked with 1% BSA in PBS Tween for 1 h, then 80 µg/well of total protein lysate from the P6 cell line was added. As a negative control was used total protein lysate from the R-cell line. The investigated compounds were added in tyrosine kinase buffer without ATP at room temperature for 30 min, prior to kinase activation with ATP. Kinase assay was performed using the Sigma kit. After spectrophotometry the IC50 values of inhibitors were determined using the Regression function of Statistica program.
T1 sequence (P08069 31-1367): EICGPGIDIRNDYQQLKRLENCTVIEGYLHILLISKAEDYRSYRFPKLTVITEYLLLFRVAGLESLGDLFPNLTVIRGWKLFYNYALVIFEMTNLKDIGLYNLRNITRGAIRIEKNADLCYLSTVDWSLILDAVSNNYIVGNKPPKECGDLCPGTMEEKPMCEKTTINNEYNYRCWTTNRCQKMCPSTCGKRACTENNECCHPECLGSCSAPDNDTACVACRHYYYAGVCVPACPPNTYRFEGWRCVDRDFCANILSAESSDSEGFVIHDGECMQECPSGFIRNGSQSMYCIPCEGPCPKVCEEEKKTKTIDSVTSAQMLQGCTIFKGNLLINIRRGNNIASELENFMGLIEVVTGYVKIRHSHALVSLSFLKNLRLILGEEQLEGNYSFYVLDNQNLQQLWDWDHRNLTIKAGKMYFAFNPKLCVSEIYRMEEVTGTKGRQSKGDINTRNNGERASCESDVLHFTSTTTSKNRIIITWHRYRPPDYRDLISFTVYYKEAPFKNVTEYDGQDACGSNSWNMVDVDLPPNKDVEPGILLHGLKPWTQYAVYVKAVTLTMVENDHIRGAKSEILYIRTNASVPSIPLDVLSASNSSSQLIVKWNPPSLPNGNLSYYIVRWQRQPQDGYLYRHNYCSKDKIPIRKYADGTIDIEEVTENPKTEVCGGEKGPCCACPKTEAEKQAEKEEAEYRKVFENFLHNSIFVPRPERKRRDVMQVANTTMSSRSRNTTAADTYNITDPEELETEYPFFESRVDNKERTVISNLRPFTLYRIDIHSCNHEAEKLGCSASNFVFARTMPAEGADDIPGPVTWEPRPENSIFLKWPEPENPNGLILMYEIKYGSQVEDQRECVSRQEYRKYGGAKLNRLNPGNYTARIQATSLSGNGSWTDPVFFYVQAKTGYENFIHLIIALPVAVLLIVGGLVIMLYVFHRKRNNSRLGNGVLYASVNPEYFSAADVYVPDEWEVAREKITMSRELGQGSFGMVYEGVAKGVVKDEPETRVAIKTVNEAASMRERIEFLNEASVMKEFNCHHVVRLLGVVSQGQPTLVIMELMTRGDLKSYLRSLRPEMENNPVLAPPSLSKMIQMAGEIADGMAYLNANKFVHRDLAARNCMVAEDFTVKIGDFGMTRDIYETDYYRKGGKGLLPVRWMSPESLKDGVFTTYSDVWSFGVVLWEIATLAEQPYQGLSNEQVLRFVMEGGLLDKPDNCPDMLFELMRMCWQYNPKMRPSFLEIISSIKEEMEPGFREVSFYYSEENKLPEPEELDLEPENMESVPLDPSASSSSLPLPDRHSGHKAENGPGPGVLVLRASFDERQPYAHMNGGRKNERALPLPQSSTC
To investigate whether PPP interferes with the tyrosine autophosphorylation at the ATP level or at the substrate level (i.e., the tyrosine kinase domain of the IGF-1R […]), various concentrations of ATP (19-300 μM) were added to the reaction buffer during the assay.
Background: ELISA stands for enzyme-linked immunosorbent assay.

Assay [4] addresses T1, IGF-1R. Put plainly: IGF-1R phosphorylation in HaCaT cells (psoriasis model). It counts as cell-based. Also noted: expressed in transfected cells; host or cells: P6 cell line (murine fibroblasts overexpressing human IGF-1R); receptor captured on plates with an antibody to the beta subunit. The conditions noted are these: 0.05 μM, 1 h, control 100. On the procedure: Keratinocytes (HaCaT cells) were provided by and tested in collaboration with Professor Mona Bäckdahl, Department of Dermatology, Karolinska Hospital, Stockholm, Sweden. The HaCaT cell line is a spontaneously immortalized human keratinocyte cell line (Boukamp P, et al., J Cell Biol 106: 761-771, 1988), which is frequently used as an experimental model for psoriasis (Wraight, C. J., et al. Nat Biotechnol 18: 521-526, 2000.) HaCaT cells were cultured in Dulbecco's Modified Eagle's Medium containing 10% fetal bovine serum, glutamine, benzylpenicillin and streptomycin.
Cells were cultured to subconfluency in 6-cm plates, and then fresh medium containing 10% FBS and the desired compounds were added for 1 h. The cells were then lyzed and subjected to immunoprecipitation using specific antibodies. […] After detection the films were scanned for quantification.
HaCaT cells, which are immortalized human keratinocytes and represent a model cell line for psoriasis, were seeded in 6-cm dishes or in 96-well plates (medium volume in a well was 100 μl), at a concentration of 7,000 cells/cm^2 in Dulbecco's Modified Eagle's Medium containing 10% fetal bovine serum. […] After 1 h incubation the cells in the 6-cm dishes were harvested for assay and quantification of IGF-1R phosphorylation as described in Experiment 1. […]

Assay [5] relates to platelet-derived growth factor receptor (PDGFR). The experiment in a line: Tyrosine phosphorylation of PDGFR in intact FM55 melanoma cells. The assay is classed as cell-based. The conditions noted are these: 0.05 μM, 1 h. On the procedure:
(§3) Cells were cultured to subconfluency in 6-cm plates, and then fresh medium containing 10% FBS and the desired compounds were added for 1 h. The cells were then lyzed and subjected to immunoprecipitation using specific antibodies. Immunoprecipitates were resolved by sodium dodecyl sulphate polyacrylamide gel electrophoresis (SDS-PAGE) and transferred to nitro-cellulose membranes and incubated with anti-phosphotyrosine antibody. Antibodies to actin (in cell extract) or IGF-1R beta subunit were used as loading controls. After detection the films were scanned for quantification.
(§4) FM55 melanoma cells were cultured in the same way as described in Experiment 1. When reaching a density of 65,000 cells/cm^2 in the dishes, they were treated for 1 h with 0 (control) and 0.05 μM of picropodophyllin and podophyllotoxin, respectively. The cells were then isolated and subjected to immunoprecipitation of the IGF-1R, fibroblast growth factor receptor (FGFR), platelet-derived growth factor receptor (PDGFR), epidermal growth factor receptor (EGFR), insulin receptor (IR) and insulin substrate-1 (IRS-1) using antibodies to respective molecules. IRS-1 is a substrate of IGF-1R, and therefore its phosphorylation is dependent on phosphorylated IGF-1R. Gelelectrophoresis, Western blotting and quantification of the different signals were performed as described above.

For assay [6], the target named is T2, epidermal growth factor receptor (EGFR) (Homo sapiens, UniProt P00533).
T2 construct: endogenous in cells; host or cells: FM55 melanoma cells
T2 sequence (P00533 25-1210): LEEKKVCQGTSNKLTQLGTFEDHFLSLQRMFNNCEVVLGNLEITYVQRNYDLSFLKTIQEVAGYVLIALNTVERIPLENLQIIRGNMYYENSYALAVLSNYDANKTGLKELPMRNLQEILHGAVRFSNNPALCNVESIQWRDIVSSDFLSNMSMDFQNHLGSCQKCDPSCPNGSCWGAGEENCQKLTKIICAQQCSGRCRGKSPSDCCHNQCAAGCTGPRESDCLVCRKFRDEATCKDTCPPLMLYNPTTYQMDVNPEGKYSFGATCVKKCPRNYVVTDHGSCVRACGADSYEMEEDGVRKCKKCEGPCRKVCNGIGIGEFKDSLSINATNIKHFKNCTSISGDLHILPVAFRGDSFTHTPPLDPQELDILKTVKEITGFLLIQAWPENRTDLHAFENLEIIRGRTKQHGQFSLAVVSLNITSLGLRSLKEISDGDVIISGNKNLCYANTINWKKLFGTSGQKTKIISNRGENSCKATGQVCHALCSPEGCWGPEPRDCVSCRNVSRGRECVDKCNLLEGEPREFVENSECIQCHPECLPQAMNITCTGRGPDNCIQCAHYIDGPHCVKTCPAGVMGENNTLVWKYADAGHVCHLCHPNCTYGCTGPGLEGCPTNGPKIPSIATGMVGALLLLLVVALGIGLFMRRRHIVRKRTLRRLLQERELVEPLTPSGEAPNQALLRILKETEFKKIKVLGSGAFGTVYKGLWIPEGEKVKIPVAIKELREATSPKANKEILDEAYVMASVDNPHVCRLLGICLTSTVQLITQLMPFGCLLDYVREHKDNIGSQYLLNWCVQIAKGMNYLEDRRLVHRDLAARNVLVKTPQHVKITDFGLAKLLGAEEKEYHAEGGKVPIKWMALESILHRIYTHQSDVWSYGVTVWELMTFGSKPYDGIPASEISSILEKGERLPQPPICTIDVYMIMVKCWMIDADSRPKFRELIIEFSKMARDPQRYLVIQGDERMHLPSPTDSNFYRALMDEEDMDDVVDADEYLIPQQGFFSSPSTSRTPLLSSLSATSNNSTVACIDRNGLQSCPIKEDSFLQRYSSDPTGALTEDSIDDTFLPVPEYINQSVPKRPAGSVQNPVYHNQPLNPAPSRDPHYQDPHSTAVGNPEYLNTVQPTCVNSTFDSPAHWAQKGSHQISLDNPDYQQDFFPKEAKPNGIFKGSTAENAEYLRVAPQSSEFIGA
The experiment in a line: Tyrosine phosphorylation of EGFR in intact FM55 melanoma cells. It counts as cell-based. The conditions noted are these: 0.05 μM, 1 h. The method, then:
as §3, §4

Assay [7] relates to RD-ES Ewing's sarcoma cell line. Put plainly: Cell viability (XTT), RD-ES. It counts as cell-based. The conditions noted are these: Homo sapiens, 48 h, read-out: EC50 for cell viability. The method, then: as §1, §2

As a reminder, the EC50 is the concentration that produces a half-maximal response. As to `COc1cc([C@@H]2c3cc4c(cc3[C@H](O)[C@H]3COC(=O)[C@H]23)OCO4)cc(OC)c1OC` [Podophyllotoxin, podophyllotoxin], the EC50 in assay [1] was more than 15 µM; in assay [2] (48 h), 0.04 µM; in assay [7], 0.1 µM. Further, in assay [3] (in vitro, stated in description, read-out: IC50 for IGF-1R-inhibition when tested in vitro), the IC50 turned out to be 0.001 µM. The IGF-1R phosphorylation in assay [4] is recorded as 45. For the same compound, in assay [5], the “Level of phosphorylation in intact cells, substrate PDGFR” value stood at 100 % OD. Besides, the “Level of phosphorylation in intact cells, substrate EGFR” value in assay [6] is listed as 107 % OD.
For the compound `COc1cc([C@@H]2c3cc4c(cc3[C@H](O)[C@H]3COC(=O)[C@@H]23)OCO4)cc(OC)c1OC` [Picropodophyllin, picropodophyllin], the EC50 in assay [1] (R- (IGF-1R negative fibroblasts)) was more than 15 µM; in assay [2] (FM55, 48 h), 0.07 µM; in assay [7], 0.1 µM. Besides, the IC50 in assay [3] (cell-free, ATP 19-300 μM in reaction buffer, read-out: IC50, autophosphorylation of IGF-1R at various ATP concentrations) is 0.001 to 0.002 µM; in assay [3] (cell-free, FIG. 4, read-out: IC50, autophosphorylation of IGF-1R) it was approximately 0.001 µM. The same compound displayed an IGF-1R phosphorylation in assay [4] of 35. For the same compound, the “Level of phosphorylation in intact cells, substrate PDGFR” value in assay [5] was determined as 104 % OD. Moreover, the “Level of phosphorylation in intact cells, substrate EGFR” value in assay [6] is 106 % OD.
